The target in experiment [1] is T1, 5-hydroxytryptamine receptor 2A (Homo sapiens, UniProt P28223). Description: Displacement of [3H]Ketanserin from 5-HT2A receptor (unknown origin) assessed as inhibition constant incubated for 90 mins by MicroBeta scintillation counting method. On the technique in general: Displacement assays read how much labelled ligand stays bound in the presence of the test substance.

The target of experiment [2] is T2, 5-hydroxytryptamine receptor 2B (Homo sapiens, UniProt P41595). The experiment is described as follows: Displacement of [3H]LSD from 5-HT2B receptor (unknown origin) assessed as inhibition constant incubated for 90 mins by MicroBeta scintillation counting method.
The target of experiment [3] is T3, 5-hydroxytryptamine receptor 2C (Homo sapiens, UniProt P28335).
T3 sequence (P28335 whole entry): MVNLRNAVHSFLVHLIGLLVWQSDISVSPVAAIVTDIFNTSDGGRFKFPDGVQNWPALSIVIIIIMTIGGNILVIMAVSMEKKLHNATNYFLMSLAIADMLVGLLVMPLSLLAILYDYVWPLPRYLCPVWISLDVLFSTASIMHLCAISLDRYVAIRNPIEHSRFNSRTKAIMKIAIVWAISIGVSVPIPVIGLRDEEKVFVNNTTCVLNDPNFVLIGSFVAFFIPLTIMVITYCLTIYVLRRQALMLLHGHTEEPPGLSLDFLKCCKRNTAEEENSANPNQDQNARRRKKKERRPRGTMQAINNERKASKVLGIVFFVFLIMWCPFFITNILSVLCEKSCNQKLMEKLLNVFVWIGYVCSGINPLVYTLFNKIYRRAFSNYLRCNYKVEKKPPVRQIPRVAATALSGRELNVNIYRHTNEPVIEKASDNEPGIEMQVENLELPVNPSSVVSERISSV
Description: Displacement of [3H]Mesulergine from 5-HT2C receptor (unknown origin) assessed as inhibition constant incubated for 90 mins by MicroBeta scintillation counting method.

Experiment [4] deals with Serotonin 2 receptors; 5-HT2a & 5-HT2c (Homo sapiens) (UniProt P28223+P28335). Description: Selectivity ratio of Ki for 5-HT2A receptor (unknown origin) to Ki for 5-HT2C receptor (unknown origin). The experiment is classed as protein assay.
The species entered for experiment [5] is Homo sapiens. Description: Selectivity ratio of Ki for 5-HT2B receptor (unknown origin) to Ki for 5-HT2C receptor (unknown origin).
The species entered for experiment [6] is Homo sapiens. Description: Selectivity ratio of Ki for 5-HT2A receptor (unknown origin) to Ki for 5-HT2B receptor (unknown origin).
Experiment [7] has as its target T1, 5-hydroxytryptamine receptor 2A. The experiment is described as follows: Antagonist activity at 5-HT2A receptor (unknown origin) incubated for 60 mins followed by 10 mins incubation in dark at room temperature by FLIPR method. The experiment is classed as functional.
Experiment [8] addresses T2, 5-hydroxytryptamine receptor 2B. The experiment is described as follows: Antagonist activity at 5-HT2B receptor (unknown origin) incubated for 60 mins followed by 10 mins incubation in dark at room temperature by FLIPR method. The experiment is classed as functional.
Experiment [9] has as its target T3, 5-hydroxytryptamine receptor 2C. The experiment is described as follows: Antagonist activity at 5-HT2C receptor (unknown origin) incubated for 60 mins followed by 10 mins incubation in dark at room temperature by FLIPR method. The experiment is classed as functional.

T2 sequence (P41595 whole entry): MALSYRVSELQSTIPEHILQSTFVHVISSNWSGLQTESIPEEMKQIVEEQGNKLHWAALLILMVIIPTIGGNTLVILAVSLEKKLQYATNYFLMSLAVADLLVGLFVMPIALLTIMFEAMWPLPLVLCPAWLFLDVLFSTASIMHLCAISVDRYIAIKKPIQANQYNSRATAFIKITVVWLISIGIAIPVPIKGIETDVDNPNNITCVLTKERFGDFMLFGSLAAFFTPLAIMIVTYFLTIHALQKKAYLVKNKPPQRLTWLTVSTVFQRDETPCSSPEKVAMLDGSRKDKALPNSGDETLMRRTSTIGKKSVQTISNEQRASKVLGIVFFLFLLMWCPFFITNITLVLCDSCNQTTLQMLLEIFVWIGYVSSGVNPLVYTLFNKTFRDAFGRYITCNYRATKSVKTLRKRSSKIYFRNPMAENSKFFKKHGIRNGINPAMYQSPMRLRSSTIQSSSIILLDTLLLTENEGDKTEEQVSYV
Serotonin 2 receptors; 5-HT2a & 5-HT2c (Homo sapiens), sequence (P28223 whole entry, looked up, one chain of several): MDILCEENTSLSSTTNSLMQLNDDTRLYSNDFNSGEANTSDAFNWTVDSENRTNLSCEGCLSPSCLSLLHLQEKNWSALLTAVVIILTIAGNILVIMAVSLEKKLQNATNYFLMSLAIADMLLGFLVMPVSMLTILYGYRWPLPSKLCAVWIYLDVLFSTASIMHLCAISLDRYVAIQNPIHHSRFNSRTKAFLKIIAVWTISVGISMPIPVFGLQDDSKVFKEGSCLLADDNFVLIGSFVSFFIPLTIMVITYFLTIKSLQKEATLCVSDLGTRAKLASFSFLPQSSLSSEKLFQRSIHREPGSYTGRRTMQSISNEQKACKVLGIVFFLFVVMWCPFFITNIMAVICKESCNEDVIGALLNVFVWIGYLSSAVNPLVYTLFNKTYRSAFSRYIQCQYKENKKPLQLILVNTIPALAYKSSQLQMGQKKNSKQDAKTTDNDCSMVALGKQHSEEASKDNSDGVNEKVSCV
T1 sequence (P28223 whole entry): as the sequence (P28223 whole entry, looked up, one chain of several) above

Regarding `COc1cc2c(cc1OC)-c1c(OC)c(OC3CCCCC3)cc3c1[C@H](C2)N(C)CC3`, the Ki (commonly the equilibrium dissociation constant of an inhibitor or competing ligand from its target) was 534 nM in experiment [1], 92 nM in experiment [2] and 113 nM in experiment [3]. Moreover, the figures for the Ratio Ki in [4], in [5] and in experiment [6] were 4.7, 0.8 and 5.8, respectively.

Regarding `COc1cc2c(cc1OC)-c1c(OC)c(OC(C)C)cc3c1[C@H](C2)N(C)CC3`, the figures for the Ki in experiment [1], in experiment [2] and in experiment [3] were 587 nM, 156 nM and 190 nM, respectively. The Ratio Ki was found to be 3.1 in experiment [4], 0.8 in experiment [5] and 3.8 in [6].

With `COc1cc2c(cc1OCc1ccc(Br)cc1)C[C@H]1c3c(cc(OC)c(OC)c3-2)CCN1C`, the Ki in experiment [2] was 42 nM; in [3] it was 281 nM. For the same compound, the Ratio Ki in experiment [4] was determined as 1.5; in experiment [5] it was 0.1; in experiment [6], 10.

As for `COc1cc2c(cc1OC(C)C)C[C@H]1c3c(cc(OC)c(OC)c3-2)CCN1C`, the Ki was determined as 45 nM in experiment [2] and 559 nM in experiment [3]. In addition, the Ratio Ki in experiment [4] turned out to be 1.3; in experiment [5] it was 0.1; in [6] it was 16.7.

Consider `COc1cc2c(cc1OC)-c1c(OC)c(OCc3ccccc3)cc3c1[C@H](C2)N(C)CC3`, for which the Ki was 22 nM in experiment [1], 48 nM in [2] and 4 nM in experiment [3]. Further, the results for the Ratio Ki in [4], in experiment [5] and in [6] were 5.5, 12 and 0.5, respectively. The results for the IC50 in experiment [7], in experiment [8] and in [9] were 137 nM, 1230 nM and 161 nM, respectively.

With `COc1cc2c(cc1OC)-c1c(OC)c(OC)cc3c1[C@H](C2)N(C)CC3` [GLAUCINE], the inhibitory constant (Ki) in experiment [2] is 119 nM; in [3] it was 328 nM. The results for the Ratio Ki in [4], in experiment [5] and in experiment [6] were 2.9, 0.4 and 8.1, respectively.

Regarding `CCC(C)Oc1cc2c(cc1OC)-c1c(OC)c(OC)cc3c1[C@H](C2)N(C)CC3` (stereo not given in full), the Ki came to 22 nM in experiment [2] and 238 nM in [3]. Further, the Ratio Ki in [4] is 1.6; in [5], 0.1; in experiment [6], 17.1.

`CCCCCOc1cc2c3c(c1OC)-c1cc(OC)c(OC)cc1C[C@@H]3N(C)CC2`: the figures for the Ki in experiment [1], in experiment [2] and in experiment [3] were 138 nM, 47 nM and 40 nM, respectively. Further, the results for the Ratio Ki in experiment [4], in [5] and in [6] were 3.5, 1 and 2.9, respectively.

Take `CCC(C)Oc1cc2c3c(c1OC)-c1cc(OC)c(OC)cc1C[C@@H]3N(C)CC2` (stereo not given in full): the Ki stood at 293 nM in experiment [1], 96 nM in [2] and 94 nM in experiment [3]. Moreover, the Ratio Ki was 3.1 in experiment [4], 1 in experiment [5] and 3.1 in [6].

As to `CCCC(C)Oc1cc2c3c(c1OC)-c1cc(OC)c(OC)cc1C[C@@H]3N(C)CC2` (stereo not given in full), the Ki in experiment [1] was 244 nM; in [2], 25 nM; in experiment [3] it was 37 nM. The Ratio Ki in experiment [4] turned out to be 6.6; in [5] it was 0.7; in experiment [6] it was 9.8.

With `CCCCC(C)Oc1cc2c(cc1OC)-c1c(OC)c(OC)cc3c1[C@H](C2)N(C)CC3` (stereo not given in full), the Ki in [2] amounted to 33 nM; in [3] it was 274 nM. Besides, the Ratio Ki in experiment [4] amounted to 1.6; in experiment [5], 0.1; in experiment [6], 13.5.

With `C=CCOc1cc2c3c(c1OC)-c1cc(OC)c(OC)cc1C[C@@H]3N(C)CC2`, the inhibition constant Ki in experiment [1] came out at 101 nM; in experiment [2], 16 nM; in [3], 50 nM. The Ratio Ki in [4] is 2; in [5] it was 0.3; in [6] it was 6.3.

`Cn1ccc2cc3c(cc21)CCN3C(=O)Nc1cccnc1`: in experiment [2], the Ki amounted to 20 nM.

As to `CCCCC(C)Oc1cc2c3c(c1OC)-c1cc(OC)c(OC)cc1C[C@@H]3N(C)CC2` (stereo not given in full), the Ki is 155 nM in experiment [1], 82 nM in experiment [2] and 72 nM in experiment [3]. The Ratio Ki in experiment [4] was 2.2; in experiment [5] it was 1; in [6] it was 1.9.

Consider `CCCC(C)Oc1cc2c(cc1OC)-c1c(OC)c(OC)cc3c1[C@H](C2)N(C)CC3` (stereo not given in full), for which the values for the Ki in experiment [2] and in [3] were 10 nM and 219 nM, respectively. The values for the Ratio Ki in experiment [4], in [5] and in [6] were 1.1, 0.05 and 24.4, respectively.

For the compound `C=CCOc1cc2c(cc1OC)-c1c(OC)c(OC)cc3c1[C@H](C2)N(C)CC3`, the Ki came out at 55 nM in experiment [2] and 543 nM in experiment [3]. The Ratio Ki in experiment [4] is 0.7; in experiment [5], 0.1; in experiment [6] it was 7.

`CCOc1cc2c(cc1OC)-c1c(OC)c(OC)cc3c1[C@H](C2)N(C)CC3`: the values for the Ki in [2] and in experiment [3] were 80 nM and 425 nM, respectively. Further, the Ratio Ki turned out to be 1.9 in experiment [4], 0.2 in experiment [5] and 10.2 in experiment [6].

In the case of `CCCCCCOc1cc2c3c(c1OC)-c1cc(OC)c(OC)cc1C[C@@H]3N(C)CC2`, the inhibitory constant (Ki) in [1] was 213 nM; in experiment [2], 105 nM; in [3] it was 82 nM. Moreover, the Ratio Ki was 2.6 in [4], 1 in [5] and 2 in experiment [6].

For the compound `CCCCOc1cc2c3c(c1OC)-c1cc(OC)c(OC)cc1C[C@@H]3N(C)CC2`, the inhibition constant Ki in [1] was 187 nM; in experiment [2] it was 15 nM; in [3], 47 nM. Moreover, the Ratio Ki in experiment [4] is 4; in [5], 0.3; in experiment [6], 12.5.

Consider `CCCCOc1cc2c(cc1OC)-c1c(OC)c(OC)cc3c1[C@H](C2)N(C)CC3`, for which the Ki in experiment [2] amounted to 56 nM; in experiment [3] it was 450 nM. The Ratio Ki was determined as 0.6 in experiment [4], 0.1 in experiment [5] and 4.8 in experiment [6].

For `COc1cc2c(cc1OC)-c1c(OC)c(OCC3CC3)cc3c1[C@H](C2)N(C)CC3`, the inhibition constant Ki is 238 nM in [1], 40 nM in [2] and 104 nM in [3]. In addition, the Ratio Ki in experiment [4] is 2.3; in experiment [5], 0.4; in [6] it was 6.

As for `CCCCCOc1cc2c(cc1OC)-c1c(OC)c(OC)cc3c1[C@H](C2)N(C)CC3`, the figures for the Ki in experiment [2] and in experiment [3] were 57 nM and 504 nM, respectively. The values for the Ratio Ki in experiment [4], in [5] and in [6] were 0.5, 0.1 and 4.2, respectively.

`COc1cc2c(cc1OC1CCCCC1)C[C@H]1c3c(cc(OC)c(OC)c3-2)CCN1C`: the Ki stood at 53 nM in experiment [2] and 614 nM in experiment [3]. The Ratio Ki in experiment [4] turned out to be 0.9; in [5] it was 0.1; in experiment [6] it was 10.8.

As to `COc1cc2c(cc1OCCF)C[C@H]1c3c(cc(OC)c(OC)c3-2)CCN1C`, the figures for the inhibitory constant (Ki) in experiment [2] and in experiment [3] were 48 nM and 542 nM, respectively. For the same compound, the Ratio Ki in experiment [4] is 2.1; in experiment [5] it was 0.1; in experiment [6], 24.1.

Turning to `CCCCCCOc1cc2c(cc1OC)-c1c(OC)c(OC)cc3c1[C@H](C2)N(C)CC3`, the Ki in experiment [2] was 53 nM; in experiment [3] it was 614 nM. In addition, the Ratio Ki in [4] came out at 0.9; in experiment [5], 0.1; in experiment [6] it was 10.8.

In the case of `Cc1nc2sccn2c(=O)c1CCN1CCC(=C(c2ccc(F)cc2)c2ccc(F)cc2)CC1` [RITANSERIN], in experiment [3], the Ki came out at 0.8 nM.

For `CCOc1cc2c3c(c1OC)-c1cc(OC)c(OC)cc1C[C@@H]3N(C)CC2`, the results for the Ki in experiment [1], in experiment [2] and in experiment [3] were 512 nM, 153 nM and 340 nM, respectively. For the same compound, the Ratio Ki was found to be 1.5 in experiment [4], 0.5 in [5] and 3.3 in experiment [6].

On to `COc1cc2c(cc1OCc1ccccc1)C[C@H]1c3c(cc(OC)c(OC)c3-2)CCN1C`, for which the Ki in experiment [2] is 192 nM; in experiment [3] it was 179 nM. The Ratio Ki in experiment [4] came to 1.2; in experiment [5] it was 1.1; in [6], 1.1.

With `COc1cc2c(cc1OC)-c1c(OC)c(OCCF)cc3c1[C@H](C2)N(C)CC3`, the values for the Ki in experiment [2] and in [3] were 629 nM and 1130 nM, respectively. In addition, the Ratio Ki in [5] came to 0.6.

Take `COc1cc2c(cc1OCC1CC1)C[C@H]1c3c(cc(OC)c(OC)c3-2)CCN1C`: the Ki in experiment [2] was found to be 29 nM; in [3] it was 533 nM. Moreover, the Ratio Ki was 1.1 in experiment [4], 0.05 in experiment [5] and 20.1 in experiment [6].

The record behind these values is ChEMBL document CHEMBL5137112, “Semisynthetic Transformations on (+)-Boldine Reveal a 5-HT2A/2CR Antagonist” (J Nat Prod, 2022).
